Data as given in patent publication EP4725551A1, “FUSION POLYPEPTIDE AJ007 AND USE THEREOF” (Nanjing Anji Biotechnology Co., Ltd., priority 2023, dated 2026).
Where two headings read alike, the source gives them in different places. One block for each compound: values may come before it. Residues, ends and D or L forms follow the SMILES beside them.

Legend:
[1] = Ocular tissue distribution at equimolar concentration after eye dropping or intravitreal injection, ELISA (Example 5); format: in vivo, C57BL/6J mice; details: for active molecules that can reach the RPE/choroid complex: 5 µL per eye; for active molecules that can reach the RPE/choroid complex / maintenance time at the RPE/choroid complex: equimolar concentration
Method: Experimental process: All the mice in the eye drop groups were administered bilateral eye drops 1 time, with 5 µL of the corresponding drug solution in each eye. At the 6 time points of 0 h, 1 h, 3 h, 7 h, 12 h, and 24 h after the completion of administration, the mice in the corresponding groups were respectively subjected to eyeball removal and blood collection, the collected whole blood was immediately centrifuged at 6,000 rpm for 5 minutes, and then, a supernatant was sucked and stored as a sample to be tested. Additionally, 3 tissue sites, namely the vitreous body, the retina, and the RPE/choroid complex, were isolated from an eyeball under a stereomicroscope, into which a phosphate buffer solution (PBS) was added at 1:10 for dilution, followed by grinding and centrifugation at 12,000 rpm for 5 minutes. A supernatant was sucked to serve as a sample to be tested. Subsequently, the concentration of the fusion polypeptide AJ007 or the multifunctional fusion polypeptide VI (HM-1) in each tissue was detected by an enzyme-linked immunosorbent assay (ELISA) method. The ELISA method is as follows: • (1) coating: diluting HM-1 with a certain concentration of a coating solution (CBS) to 1 µg/mL, adding the diluted solution into a microplate at 100 µL per well, and standing overnight at 4°C; • (2) plate washing: discarding the coating solution, adding 265 µL of a PBST washing solution to each well, washing 3 times for 3 minutes each time, and beating to dryness; • (3) blocking: adding 200 µL of a 1% BSA blocking solution to each well, placing the solution in a water bath at 37°C for 1.5 hours, repeating the plate washing process, and beating to dryness; • (4) addition of a sample to be tested and an antibody: first, adding 100 µL of the sample to be tested to a microplate, then adding 100 µL of an HM-1 monoclonal antibody dilution solution at a certain concentration, setting 2-3 replicate wells, shaking uniformly on a shaker at 37°C for 2 minutes, then transferring the mixture to a water bath pot for placement at 37°C for 2 hours, taking out the mixture after a thorough reaction, and repeating the plate washing process; • (5) reaction with an enzyme-labeled secondary antibody: adding a certain concentration of HRP enzyme-labeled goat anti-mouse IgG at 100 µL per well for incubation at 37°C for 1.5 hours, repeating the plate washing process, and beating to dryness; • (6) addition of a substrate: adding 100 µL of a TMB substrate chromogenic solution to each well for color development at room temperature in the dark for a certain period of time; • (7) termination: adding 50 µL of a termination solution to each well to terminate the reaction; and • (8) detection: reading an OD value of each well at 450 nm using a microplate reader.
This example provides an ocular tissue distribution comparison experiment of the polypeptide eye drops (AJ007 eye drops) in Example 2 with an equimolar concentration of the multifunctional fusion polypeptide VI (HM-1), a multifunctional fusion polypeptide VI preparation (HM-1 preparation, with a polypeptide being HM-1 and a formulation of other auxiliary materials being the same as the AJ007 eye drops), a fusion polypeptide AJ007 preparation (TAT-HM-1, with a polypeptide being AJ007 and pure water as a vehicle) after eye dropping, and the multifunctional fusion polypeptide VI (HM-1) after intravitreal injection, which is specifically described below.
Animal grouping: […] C57BL/6J mice were randomly divided into a total of 7 time point groups, including 0 h, 10 min, 1 h, 3 h, 7 h, 12 h, and 24 h, with 2 mice in each group.
Experimental process: All the mice in the eye drop administration groups were administered bilateral eye drops 1 time, with 5 µL of a corresponding drug solution dropped into each eye, while 5 µL of a corresponding drug solution was injected into both eyes in the HM-1 intravitreal injection group. […]

[2] = cited from earlier work

Compound: C[C@H](NC(=O)CNC(=O)[C@H](CCCNC(=N)N)NC(=O)[C@H](CCCNC(=N)N)NC(=O)[C@H](CCCNC(=N)N)NC(=O)[C@H](CCCNC(=N)N)NC(=O)[C@H](CCC(N)=O)NC(=O)[C@H](CCCNC(=N)N)NC(=O)[C@H](CCCNC(=N)N)NC(=O)[C@H](CCCCN)NC(=O)[C@H](CCCCN)NC(=O)[C@H](CCCNC(=N)N)NC(=O)CNC(=O)[C@@H](N)Cc1ccc(O)cc1)C(=O)N[C@@H](CC(=O)O)C(=O)N[C@@H](CCCNC(=N)N)C(=O)N[C@@H](C)C(=O)NCC(=O)NCC(=O)NCC(=O)NCC(=O)N[C@@H](CCCNC(=N)N)C(=O)NCC(=O)N[C@@H](CC(=O)O)C(=O)O [AJ007] (H-YGRKKRRQRRRRGADRAGGGGRGD-OH)
- ability to penetrate through the posterior segment of ocular, increase compared with HM-1 ([1]; eye dropping): approximately 600 times
- active molecules that can reach the RPE/choroid complex ([1]; single eye dropping): 6291.38 ng/mL
- active molecules that can reach the RPE/choroid complex ([1]; single eye dropping, listed as TAT-HM-1): 843.28 ng/mL
- maintenance time at the RPE/choroid complex ([1]; single eye dropping): the maintenance time is also shorter

- active molecules that can reach the RPE/choroid complex ([1]; intravitreal injection): approximately 5729.7 ng/mL
- maintenance time at the RPE/choroid complex ([1]; intravitreal injection): the maintenance time is shorter
- active molecules that can reach the RPE/choroid complex ([1]; single eye dropping): less than 10 ng/mL
- maintenance time at the RPE/choroid complex ([1]; single eye dropping): very short
Compound: C[C@H](NC(=O)CNC(=O)[C@@H](N)CCCNC(=N)N)C(=O)N[C@@H](CC(=O)O)C(=O)N[C@@H](CCCNC(=N)N)C(=O)N[C@@H](C)C(=O)NCC(=O)NCC(=O)NCC(=O)NCC(=O)N[C@@H](CCCNC(=N)N)C(=O)NCC(=O)N[C@@H](CC(=O)O)C(=O)O [HM-1, Arg-Gly-Ala-Asp-Arg-Ala-Gly-Gly-Gly-Gly-Arg-Gly-Asp] (H-RGADRAGGGGRGD-OH)

Compound: axitinib
- concentration reaching the retina after eye dropping, increase ([2]; in vivo): 5-10 times

Compound: bevacizumab
- ability to penetrate through and enter the posterior segment of the eye after eye dropping, increase ([2]; after linking to a cell-penetrating peptide CPP): approximately 10 times

Compound: ranibizumab
- concentration reaching the retina after eye dropping, increase ([2]; after linking to a cell-penetrating peptide, patents CN114073774A, CN114668717A): approximately 100 times
